We go through 19 compounds from patent publication US9045498B2, “Hexahydropyrano[3,4-d][1,3]thiazin-2-amine compounds” (Pfizer Inc., priority 2012, dated 2015).

For test [1], the system named is sAPPβ levels in H4 human neuroglioma cells over-expressing the wild-type human APP695. Description: Whole Cell Assay (In Vitro sAPPb Assay). The class given is cell-based. To be noted: 18 hours treatment, geometric mean of 2-3 determinations (4-7 where marked d). As to the method: Whole Cell Assay (In Vitro sAPPb Assay):
H4 human neuroglioma cells over-expressing the wild-type human APP695 are treated for 18 hours with compound in cell growth media having a final concentration 1% DMSO. sAPPβ levels are measured using either TMB-ELISA or Pierce SuperSignal ELISA Pico Chemiluminescent Substrate (Pierce 37069) with capture APP N-terminal antibody (Affinity BioReagents, OMA1-03132), wild-type sAPPβ specific reporter p192 (Elan), and tertiary anti rabbit-HRP (GE Healthcare).

Another test deals with BACE2 enzyme (Homo sapiens (Human), UniProt Q9Y5Z0). The test is described as follows: BACE2 Cell-free Assay (fluorescence polarization). The note with it: pH 4.5, 3 hours at 37° C.; number of determinations per footnote a, b, d. The class given is biochemical. As to the method:
This assay measures the inhibition of the BACE2 enzyme as it cleaves a non-native peptide. A synthetic substrate that can be cleaved by BACE2 having N-terminal biotin and made fluorescent by the covalent attachment of Oregon Green at the Cys residue is used to assay BACE2 activity in the presence or absence of the inhibitory compounds. The substrate is Biotin-[…]-C(Oregon green)-KK-OH. The BACE2 enzyme is available from Enzo Life Sciences (Cat # BML-SE550). Compounds are incubated in a ½ log dose response curve from a top concentration of 100 μM with BACE2 enzyme and the biotinylated fluorescent peptide in 384-well black plates (Thermo Scientific #4318). BACE2 is at a final concentration of 2.5 nM with a final concentration of peptide substrate of 150 nM in a reaction volume of 30 μL assay buffer (100 mM sodium acetate, pH 4.5 (brought to pH with acetic acid), and 0.001% Tween-20). Plates are covered and incubated for 3 hours at 37° C. The reaction is stopped with the addition of 30 μL of 1.5 μM Streptavidin (Pierce, #21125). After a 10 minute incubation at room temperature, plates are read on a Perkin Elmer EnVision for fluorescence polarization (Ex485 nm/Em530 nm). The activity of the beta-secretase enzyme is detected by changes in the fluorescence polarization that occur when the substrate is cleaved by the enzyme.
Background: Fluorescence polarisation rises when a labelled molecule tumbles more slowly, as on binding a larger partner.

For a further test, the target named is BACE1 enzyme (Homo sapiens (Human), UniProt P56817). Description: BACE1 Cell-Free Assay (fluorescence polarization). The class given is biochemical. To be noted: geometric mean of 2-3 determinations; pH 4.5, 3 hours at 37° C. The source says: This assay measures the inhibition of the beta-secretase enzyme as it cleaves a non-native peptide.
A synthetic APP substrate that can be cleaved by beta-secretase having N-terminal biotin and made fluorescent by the covalent attachment of Oregon Green at the Cys residue is used to assay beta-secretase activity in the presence or absence of the inhibitory compounds. […] The BACE1 enzyme is affinity purified material from conditioned media of CHO-K1 cells that have been transfected with a soluble BACE construct (BACE1deltaTM96His). Compounds are incubated in a ½ log dose response curve from a top concentration of 100 μM with BACE1 enzyme and the biotinylated fluorescent peptide in 384-well black plates (Thermo Scientific #4318). BACE1 is at a final concentration of 0.1 nM with a final concentration of peptide substrate of 150 nM in a reaction volume of 30 μL assay buffer (100 mM sodium acetate, pH 4.5 (brought to pH with acetic acid), and 0.001% Tween-20). Plates are covered and incubated for 3 hours at 37° C. The reaction is stopped with the addition of 30 μL of 1.5 μM Streptavidin (Pierce, #21125). After a 10 minute incubation at room temperature, plates are read on a PerkinElmer EnVision for fluorescence polarization (Ex485 nm/Em530 nm). The activity of the beta-secretase enzyme is detected by changes in the fluorescence polarization that occur when the substrate is cleaved by the enzyme.

Molecules are shown by their SMILES.

Sequence of BACE2 enzyme (Q9Y5Z0 63-518): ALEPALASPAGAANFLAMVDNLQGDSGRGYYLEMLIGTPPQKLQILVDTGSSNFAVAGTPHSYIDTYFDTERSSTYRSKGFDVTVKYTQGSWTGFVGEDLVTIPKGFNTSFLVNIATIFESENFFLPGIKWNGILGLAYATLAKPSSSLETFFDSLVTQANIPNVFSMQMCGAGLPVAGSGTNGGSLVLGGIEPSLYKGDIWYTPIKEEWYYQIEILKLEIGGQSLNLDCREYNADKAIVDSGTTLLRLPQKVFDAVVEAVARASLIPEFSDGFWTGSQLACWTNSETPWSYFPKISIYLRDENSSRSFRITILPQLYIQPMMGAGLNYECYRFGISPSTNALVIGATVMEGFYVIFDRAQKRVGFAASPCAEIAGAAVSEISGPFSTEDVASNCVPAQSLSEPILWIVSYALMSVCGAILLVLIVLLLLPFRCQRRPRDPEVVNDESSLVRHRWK
Sequence of BACE1 enzyme (P56817 46-457): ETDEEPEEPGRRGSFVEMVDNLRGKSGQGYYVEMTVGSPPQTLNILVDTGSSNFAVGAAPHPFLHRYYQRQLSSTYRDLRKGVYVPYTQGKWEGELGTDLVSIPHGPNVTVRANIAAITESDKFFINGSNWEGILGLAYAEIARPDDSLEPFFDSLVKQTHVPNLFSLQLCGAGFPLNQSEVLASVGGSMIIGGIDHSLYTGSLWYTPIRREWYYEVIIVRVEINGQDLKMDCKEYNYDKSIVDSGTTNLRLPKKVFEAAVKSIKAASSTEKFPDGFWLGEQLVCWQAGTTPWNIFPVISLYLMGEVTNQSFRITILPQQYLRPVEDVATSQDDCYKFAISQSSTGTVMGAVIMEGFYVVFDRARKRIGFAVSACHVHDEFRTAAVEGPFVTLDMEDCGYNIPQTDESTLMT

Turning to `Cn1cc([C@H]2C[C@H]3CSC(N)=N[C@@]3(c3cc(CNCC(F)(F)F)ccc3F)CO2)cn1` (relative stereo) [Example 16, rel-(4aR,6R,8aS)-8a-(2-Fluoro-5-{[(2,2,2-trifluoroethyl)amino]methyl}phenyl)-6-(1-methyl-1H-pyrazol-4-yl)-4,4a,5,6,8,8a-hexahydropyrano[3,4-d][1,3]thiazin-2-amine], the figures for the IC50 (in test [1]; against BACE2 enzyme; at BACE1 enzyme) were 1.88 nM, 108 nM and 19 nM, respectively.

As to `COC[C@@H](C)NCc1ccc(F)c([C@]23CO[C@@H](c4cnn(C)c4)C[C@H]2CSC(N)=N3)c1` (relative stereo) [Example 18, (4aR*,6R*,8aS*)-8a-[2-Fluoro-5-({[(2R)-1-methoxypropan-2-yl]amino}methyl)phenyl]-6-(1-methyl-1H-pyrazol-4-yl)-4,4a,5,6,8,8a-hexahydropyrano[3,4-d][1,3]thiazin-2-amine], the IC50 (usually the point on the concentration scale where inhibition reaches its midpoint) amounted to 0.545 nM in test [1], 20 nM against BACE2 enzyme and 36 nM at BACE1 enzyme.

As to `COc1cc(F)c([C@]23CO[C@@H](COCc4ccccc4)C[C@H]2CSC(N)=N3)cc1C#N` [Example 1, 5-[(4aR,6R,8aS)-2-Amino-6-[(benzyloxy)methyl]-4,4a,5,6-tetrahydropyrano[3,4-d][1,3]thiazin-8a(8H)-yl]-4-fluoro-2-methoxybenzonitrile], the IC50 in test [1] was 53.5 nM; against BACE1 enzyme, 1220 nM.

On to `N#Cc1cc([C@]23CO[C@@H](COCc4ccccc4)C[C@H]2CSC(N)=N3)c(F)cc1F` [Example 2, 5-[(4aR,6R,8aS)-2-Amino-6-[(benzyloxy)methyl]-4,4a,5,6-tetrahydropyrano[3,4-d][1,3]thiazin-8a(8H)-yl]-2,4-difluorobenzonitrile], for which the IC50 in test [1] turned out to be 74 nM; on BACE1 enzyme, 445 nM.

For the compound `N#Cc1cc([C@]23CO[C@@H](CO)C[C@H]2CSC(N)=N3)c(F)cc1F` [Example 3, 5-[(4aR,6R,8aS)-2-Amino-6-(hydroxymethyl)-4,4a,5,6-tetrahydropyrano[3,4-d][1,3]thiazin-8a(8H)-yl]-2,4-difluorobenzonitrile], the IC50 in test [1] came to 393 nM; on BACE1 enzyme it was 5550 nM.

Regarding `N#Cc1cc([C@]23CO[C@@H](CF)C[C@H]2CSC(N)=N3)c(F)cc1F` [Example 4, 5-[(4aR,6R,8aS)-2-Amino-6-(fluoromethyl)-4,4a,5,6-tetrahydropyrano[3,4-d][1,3]thiazin-8a(8H)-yl]-2,4-difluorobenzonitrile], the values for the IC50 (in test [1]; on BACE2 enzyme) were 93 nM and 2520 nM, respectively.

The compound `COC[C@H]1C[C@H]2CSC(N)=N[C@@]2(c2cc(C#N)c(F)cc2F)CO1` [Example 5, 5-[(4aR,6R,8aS)-2-Amino-6-(methoxymethyl)-4,4a,5,6-tetrahydropyrano[3,4-d][1,3]thiazin-8a(8H)-yl]-2,4-difluorobenzonitrile] displayed an IC50 in test [1] of 46.5 nM.

Consider `C[C@H]1C[C@H]2CSC(N)=N[C@@]2(c2cc(C#N)ccc2Cl)CO1` [Example 6, 3-[(4aR,6S,8aS)-2-Amino-6-methyl-4,4a,5,6-tetrahydropyrano[3,4-d][1,3]thiazin-8a(8H)-yl]-4-chlorobenzonitrile], for which the IC50 in test [1] is 195 nM; against BACE1 enzyme, 2330 nM.

`C[C@H]1C[C@H]2CSC(N)=N[C@@]2(c2cccc(C#N)c2)CO1` [Example 7, 3-[(4aR,6S,8aS)-2-Amino-6-methyl-4,4a,5,6-tetrahydropyrano[3,4-d][1,3]thiazin-8a(8H)-yl]benzonitrile]: the IC50 came out at 119 nM in test [1] and 1780 nM against BACE1 enzyme.

Consider `NC1=N[C@@]2(c3cc(CNCC(F)(F)F)c(F)cc3F)CO[C@@H](CF)C[C@H]2CS1` [Example 8, (4aR,6R,8aS)-8a-(2,4-Difluoro-5-{[(2,2,2-trifluoroethyl)amino]methyl}phenyl)-6-(fluoromethyl)-4,4a,5,6,8,8a-hexahydropyrano[3,4-d][1,3]thiazin-2-amine], for which the IC50 in test [1] was found to be 5.9 nM.

On to `C[C@H]1C[C@H]2CSC(N)=N[C@@]2(c2cc(CNCC(F)(F)F)c(F)cc2F)CO1` [Example 9, (4aR,6S,8aS)-8a-(2,4-Difluoro-5-{[(2,2,2-trifluoroethyl)amino]methyl}phenyl)-6-methyl-4,4a,5,6,8,8a-hexahydropyrano[3,4-d][1,3]thiazin-2-amine], for which the results for the IC50 (in test [1]; against BACE1 enzyme) were 8.94 nM and 76 nM, respectively.

Take `Cc1cc([C@H]2C[C@H]3CSC(N)=N[C@@]3(c3cc(C#N)ccc3F)CO2)on1` [Example 10, 3-[(4aR,6R,8aS)-2-Amino-6-(3-methyl-1,2-oxazol-5-yl)-4,4a,5,6-tetrahydropyrano[3,4-d][1,3]thiazin-8a(8H)-yl]-4-fluorobenzonitrile]: the IC50 in test [1] came to 10.9 nM; on BACE1 enzyme it was 64 nM.

Take `Cc1coc([C@H]2C[C@H]3CSC(N)=N[C@@]3(c3cc(C#N)ccc3F)CO2)n1` [Example 11, 3-[(4aR,6R,8aS)-2-Amino-6-(4-methyl-1,3-oxazol-2-yl)-4,4a,5,6-tetrahydropyrano[3,4-d][1,3]thiazin-8a(8H)-yl]-4-fluorobenzonitrile]: the half-maximal inhibitory concentration (IC50) in test [1] is 12.1 nM; against BACE1 enzyme, 107 nM.

Turning to `Cn1cc([C@H]2C[C@H]3CSC(N)=N[C@@]3(c3cc(C#N)ccc3F)CO2)cn1` [Example 12, 3-[(4aR,6R,8aS)-2-Amino-6-(1-methyl-1H-pyrazol-4-yl)-4,4a,5,6-tetrahydropyrano[3,4-d][1,3]thiazin-8a(8H)-yl]-4-fluorobenzonitrile], the IC50 in test [1] stood at 6.43 nM; at BACE1 enzyme, 60 nM.

On to `N#Cc1ccc(F)c([C@]23CO[C@@H](C4CC4)C[C@H]2CSC(N)=N3)c1` [Example 13, 3-[(4aR,6R,8aS)-2-Amino-6-cyclopropyl-4,4a,5,6-tetrahydropyrano[3,4-d][1,3]thiazin-8a(8H)-yl]-4-fluorobenzonitrile], for which the IC50 was found to be 47.6 nM in test [1] and 342 nM at BACE1 enzyme.

As for `C[C@H]1C[C@H]2CSC(N)=N[C@@]2(c2cc(C#N)ccc2F)CO1` [Example 14, 3-[(4aR,6S,8aS)-2-Amino-6-methyl-4,4a,5,6-tetrahydropyrano[3,4-d][1,3]thiazin-8a(8H)-yl]-4-fluorobenzonitrile], the values for the IC50 (in test [1]; against BACE1 enzyme) were 49.6 nM and 967 nM, respectively.

On to `Cc1cc([C@H]2C[C@H]3[C@@H](C)SC(N)=N[C@@]3(c3cc(C#N)ccc3F)CO2)on1` [Example 17, 3-[(4R,4aR,6R,8aS)-2-Amino-4-methyl-6-(3-methyl-1,2-oxazol-5-yl)-4,4a,5,6-tetrahydropyrano[3,4-d][1,3]thiazin-8a(8H)-yl]-4-fluorobenzonitrile], for which the IC50 in test [1] came out at 11.4 nM; against BACE1 enzyme it was 82 nM.

For `C[C@H]1C[C@H]2[C@@H](CF)SC(N)=N[C@@]2(c2cc(CNCC(F)(F)F)ccc2F)CO1` [Example 19, (4S,4aR,6S,8aS)-4-(Fluoromethyl)-8a-(2-fluoro-5-{[(2,2,2-trifluoroethyl)amino]methyl}phenyl)-6-methyl-4,4a,5,6,8,8a-hexahydropyrano[3,4-d][1,3]thiazin-2-amine], the IC50 in test [1] is 30.4 nM; at BACE1 enzyme, 150 nM.

Take `C[C@H]1C[C@H]2[C@@H](CF)SC(N)=N[C@@]2(c2cc(CNCC(F)(F)F)c(F)cc2F)CO1` [Example 20, (4S,4aR,6S,8aS)-8a-(2,4-Difluoro-5-{[(2,2,2-trifluoroethyl)amino]methyl}phenyl)-4-(fluoromethyl)-6-methyl-4,4a,5,6,8,8a-hexahydropyrano[3,4-d][1,3]thiazin-2-amine]: the IC50 was 35.7 nM in test [1] and 68 nM against BACE1 enzyme.
